From article PMC11406361, “Several orphan solute carriers functionally identified as organic cation transporters: Substrates specificity compared with known cation transporters” (The Journal of Biological Chemistry, 2024)
Peptide text beside a SMILES is read from it.

target: SLC35G3 (Homo sapiens, UniProt Q8N808); assay: Uptake ratio screen, SLC35G3-overexpressing HEK293 over empty vector cells; format: cell-based; set-up: by amplifying the entire gene-of-interest within the HEK293 genome via a long-range PCR; settings: not given
Sequence (Q8N808 whole entry): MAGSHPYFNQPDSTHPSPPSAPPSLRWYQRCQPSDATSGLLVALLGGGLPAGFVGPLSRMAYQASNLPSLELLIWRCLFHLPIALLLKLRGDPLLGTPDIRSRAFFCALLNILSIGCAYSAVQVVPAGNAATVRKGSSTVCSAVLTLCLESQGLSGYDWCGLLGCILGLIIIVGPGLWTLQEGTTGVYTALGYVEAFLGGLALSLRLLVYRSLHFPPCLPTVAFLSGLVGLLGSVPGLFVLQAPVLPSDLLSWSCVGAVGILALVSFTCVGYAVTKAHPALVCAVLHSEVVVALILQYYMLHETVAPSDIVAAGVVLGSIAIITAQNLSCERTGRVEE

Structure (SMILES)	Uptake data for SLC35G3, mean value (fold-increase over empty vector control)
CNCC[C@H](Oc1cccc2ccccc12)c1cccs1 [Duloxetine]	1.26
C[C@H](N)[C@@H](O)c1ccccc1 [Cathine ((+)-Norpseudoephedrine), (+)-Norpseudoephedrine]	1.21

same assay, conditions: 2.5 μM substrate, 2 min, HEK293

Structure (SMILES)	Uptake data for SLC35G3, mean value (fold-increase over empty vector control)
CC(NC(C)(C)C)C(=O)c1cccc(Cl)c1 (centres unmarked) [Bupropion]	1.29
C[N+]1(CC2CC2)CC[C@]23c4c5ccc(O)c4O[C@H]2C(=O)CC[C@@]3(O)[C@H]1C5 (some centres unmarked) [Methylnaltrexon]	1.36
O=C1CC2(CCCC2)CC(=O)N1CCCCN1CCN(c2ncccn2)CC1 [Buspirone]	1.72
CNCCCN1c2ccccc2CCc2ccccc21 [Desipramine]	1.31
CNC[C@H](O)c1cccc(O)c1 [Phenylephrine]	1.10
CC[C@@H](CO)NCCN[C@@H](CC)CO [Ethambutol]	0.99
Cc1nc2n(c(=O)c1CCN1CCC(c3noc4cc(F)ccc34)CC1)CCCC2 [Risperidone]	1.41
C=C1CC[C@@]2(O)[C@H]3Cc4ccc(O)c5c4[C@@]2(CCN3CC2CC2)[C@H]1O5 [Nalmefen]	1.99
CN1CCN(C2=Nc3cc(Cl)ccc3Nc3ccccc32)CC1 [Clozapine]	1.44
N[C@@H]1CON=C1O [Cycloserine (L-), Cycloserine]	1.11
COCCn1c2c([n+](Cc3cnccn3)c1C)C(=O)c1ccccc1C2=O [YM155]	1.11
COCCOC(=O)C1=C(C)NC(C)=C(C(=O)OC(C)C)C1c1cccc([N+](=O)[O-])c1 (centres unmarked) [Nimodipine]	1.26
CCCCN1CCCCC1C(=O)Nc1c(C)cccc1C (centres unmarked) [Bupivacaine]	2.44
CN[C@@H](C)[C@H](O)c1ccccc1 [Ephedrine]	1.59
CC(C)NCC(O)COc1cccc2ccccc12 (centres unmarked) [Propranolol]	1.27
CC(Cc1ccc(O)cc1)NCC(O)c1cc(O)cc(O)c1 (centres unmarked) [Fenoterol]	1.19
CCN(CC)C(=O)C1(c2ccccc2)CC1CN (centres unmarked) [Milnacipran]	1.31
C=CCN1C[C@H](C(=O)N(CCCN(C)C)C(=O)NCC)C[C@@H]2c3cccc4[nH]cc(c34)C[C@H]21 [Cabergoline]	1.49
CCN(CC)CCNC(=O)c1cc(Cl)c(N)cc1OC [Metoclopramide]	1.44
CNCC1CCCCC1(O)c1cccc(OC)c1 (centres unmarked) [N-Desmethyltramadol]	1.38
CCOC(=O)[C@]1(c2ccccc2)CCC=C[C@H]1NC [Nortilidine]	2.87
COc1cc2nc(N3CCN(C(=O)C4CCCO4)CC3)nc(N)c2cc1OC (centres unmarked) [Terazosin]	1.49
OC(CCN1CCCCC1)(c1ccccc1)C1CC2C=CC1C2 (centres unmarked) [Biperiden]	1.50
CC(CCc1ccc(O)cc1)NCCc1ccc(O)c(O)c1 (centres unmarked) [Dobutamine]	1.58
O=C1CCc2ccc(OCCCCN3CCN(c4cccc(Cl)c4Cl)CC3)cc2N1 [Aripiprazole]	1.22
CC(C)(C)c1ccc(C(O)CCCN2CCC(C(O)(c3ccccc3)c3ccccc3)CC2)cc1 (centres unmarked) [Terfenadine]	1.28

Structure (SMILES)	Uptake data for SLC35G3, mean value (fold-increase over empty vector control)
C=CCN1CC[C@]23c4c5ccc(O)c4O[C@H]2C(=O)CC[C@@]3(O)[C@H]1C5 [Naloxone]	2.01
COC(=O)[C@H](Cc1ccccc1)NC(=O)[C@@H](N)CC(=O)O [Aspartame] (H-Asp-Phe-OMe)	0.92
CN[C@@H]1CCc2[nH]c3ccc(C(N)=O)cc3c2C1 [Frovatriptan (R-), Frovatriptan]	1.06
CCN1CCCC1CNC(=O)c1cc(S(=O)(=O)CC)c(N)cc1OC (centres unmarked) [Amisulpride]	1.53
CCCCNc1ccc(C(=O)OCCN(C)C)cc1 [Tetracaine]	1.54
C[N+](C)(C)CC(=O)O [Betaine]	0.84
C[C@H]1COc2c(N3CCN(C)CC3)c(F)cc3c(=O)c(C(=O)O)cn1c23 [Levofloxacin]	1.05
CN(C)CCc1c[nH]c2ccc(C[C@H]3COC(=O)N3)cc12 [Zolmitriptan]	1.27
CC(CN(C)C)CN1c2ccccc2CCc2ccccc21 (centres unmarked) [Trimipramine]	1.47
C[C@H]1c2cccc(O)c2C(=O)C2=C(O)[C@]3(O)C(=O)C(C(N)=O)=C(O)[C@@H](N(C)C)[C@@H]3[C@@H](O)[C@@H]21 [Doxycycline]	1.34
COc1ccc(OC)c(C(O)CNC(=O)CN)c1 (centres unmarked) [Midodrine]	1.33
NC1Cc2cc3c(cc2C1)OCO3 [MDAI, 5,6-Methylenedioxy-2-aminoindane]	1.71
CNCC(c1ccc(OC)cc1)C1(O)CCCCC1 (centres unmarked) [N-Desmethylvenlafaxine]	1.20
CN(C)CCOC(C)(c1ccccc1)c1ccccn1 (centres unmarked) [Doxylamine]	1.10
COc1cc(Cc2cnc(N)nc2N)cc(OC)c1OC [Trimethoprim]	1.24
CN(C)CCC=C1c2ccccc2CCc2ccccc21 [Amitriptyline]	1.47
COc1ccccc1N1CCN(CCCNc2cc(=O)n(C)c(=O)n2C)CC1 [Urapidil]	1.37
CCN(C)C(=O)Oc1cccc([C@H](C)N(C)C)c1 [Rivastigmine]	1.65
CCCN(CCC)CCc1cccc2c1CC(=O)N2 [Ropinirole]	1.37
COc1ccc(CN(CCN(C)C)c2ccccn2)cc1 [Pyrilamine]	1.74
C#CCN[C@@H]1CCc2ccccc21 [Rasagiline]	1.90
NC(=O)C1(N2CCCCC2)CCN(CCCC(=O)c2ccc(F)cc2)CC1 [Pipamperone]	1.33
COc1ccc2c(c1)N(C[C@H](C)CN(C)C)c1ccccc1S2 [Levomepromazine]	1.30
OCCOCCN1CCN(C2=Nc3ccccc3Sc3ccccc32)CC1 [Quetiapine]	1.37
COc1ccc(C(CN(C)C)C2(O)CCCCC2)cc1 (centres unmarked) [Venlafaxine]	1.60
